# Legend:
# [1] = system: Human whole blood stimulated with a TLR2 agonist (lipoteichoic acid), IL-6 levels; assay: IRAK4 Whole Blood Assay; assay type: cell-based; settings: lipoteichoic acid 10 μg/mL
# Summary of the method: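 ACD-A-anticoagulated human whole blood was preincubated with compounds for 60 min at 37 °C under 5% CO2. It was then stimulated with 10 μg/mL lipoteichoic acid (final) in RPMI for 5 h. IL-6 in plasma supernatants was measured by flow cytometry bead assay.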
# [2] = Caco-2 Permeability Assay; assay type: in vitro ADME; settings: human, Caco-2, test compound 3 μM
# Summary of the method: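 Bidirectional permeability measured over 2 h at 37° C, compound dosed at 3 μM in the donor compartment (apical for absorptive, basolateral for secretive) with plain buffer as receiver.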
# [3] = target: IRAK4 (Homo sapiens (Human), UniProt Q9NWZ3); assay: IRAK4 Inhibition Assay; assay type: biochemical; settings: ATP 500 μM; IRAK4 0.6 nM
# Chain of IRAK4 (Q9NWZ3 whole entry, species assumed): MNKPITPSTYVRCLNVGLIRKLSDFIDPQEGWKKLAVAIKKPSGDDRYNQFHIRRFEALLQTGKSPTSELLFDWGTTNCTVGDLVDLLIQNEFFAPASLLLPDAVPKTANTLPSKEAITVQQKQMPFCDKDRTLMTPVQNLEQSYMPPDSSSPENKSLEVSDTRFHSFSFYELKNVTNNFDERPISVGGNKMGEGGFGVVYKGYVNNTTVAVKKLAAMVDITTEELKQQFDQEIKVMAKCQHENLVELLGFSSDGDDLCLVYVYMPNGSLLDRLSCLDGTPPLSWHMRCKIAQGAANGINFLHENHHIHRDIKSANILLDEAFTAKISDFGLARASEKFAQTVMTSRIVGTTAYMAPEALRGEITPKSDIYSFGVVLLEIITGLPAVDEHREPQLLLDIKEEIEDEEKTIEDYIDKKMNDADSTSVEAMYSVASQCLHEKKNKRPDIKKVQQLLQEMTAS
# Summary of the method: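 Mobility-shift readout: phosphorylated and unphosphorylated fluorescent peptide (1.5 μM) resolved by electrophoresis after a 60 min room-temperature reaction stopped with EDTA. Reaction holds 0.6 nM IRAK4, 500 μM ATP and 1.6% DMSO in HEPES pH 7.2/MgCl2/Brij 35/DTT buffer; percent inhibition set against vehicle and no-enzyme controls.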
EC50 ([1]; Homo sapiens) [nM],"Papp at 2 h, 3 µM [2] [×10⁻⁶ cm/s]",IC50 [3] [nM],EC50 [1] [nM],Structure (SMILES)
280,6.4,6,,"CC(C)Nc1cc(-n2ncc3cnc(N)nc32)ncc1-n1cc(CCC(C)(C)O)nn1 [Example 350, 4-(1-(6-(6-amino-1H-pyrazolo[3,4-d]pyrimidin-1-yl)-4-(isopropylamino)pyridin-3-yl)-1H-1,2,3-triazol-4-yl)-2-methylbutan-2-ol]"
370,30.6,4,,"CC(C)Nc1cc(-n2ncc3cnc(N)nc32)ncc1-n1cc(CCC(C)(C)F)nn1 [Example 351, 1-(5-(4-(3-fluoro-3-methylbutyl)-1H-1,2,3-triazol-1-yl)-4-(isopropylamino)pyridin-2-yl)-1H-pyrazolo[3,4-d]pyrimidin-6-amine]"
,36,14,150,"CC(F)Cc1cn(-c2cnc(-n3ncc4cc(C#N)cnc43)cc2NC2CC2)nn1 (stereo not drawn) [Example 354, 1-(4-(cyclopropylamino)-5-(4-(2-fluoropropyl)-1H-1,2,3-triazol-1-yl)pyridin-2-yl)-1H-pyrazolo[3,4-b]pyridine-5-carbonitrile]"
240,48.7,7,,"CC(C)Nc1cc(-n2ncc3cc(C#N)cnc32)ncc1-n1cc(C2CCOCC2)nn1 [Example 355, 1-(4-(isopropylamino)-5-(4-(tetrahydro-2H-pyran-4-yl)-1H-1,2,3-triazol-1-yl)pyridin-2-yl)-1H-pyrazolo[3,4-b]pyridine-5-carbonitrile]"
360,5.6,7,,"CC(C)Nc1cc(-n2ncc3cc(C#N)cnc32)ncc1-n1cc(C2CCN(S(C)(=O)=O)CC2)nn1 [Example 361, 1-(4-(isopropylamino)-5-(4-(1-(methylsulfonyl)piperidin-4-yl)-1H-1,2,3-triazol-1-yl)pyridin-2-yl)-1H-pyrazolo[3,4-b]pyridine-5-carbonitrile]"
330,15.6,6,,"CC(C)(F)CCc1cn(-c2cnc(-n3ncc4cc(C#N)cnc43)cc2NC2COC2)nn1 [Example 363, 1-(5-(4-(3-fluoro-3-methylbutyl)-1H-1,2,3-triazol-1-yl)-4-(oxetan-3-ylamino)pyridin-2-yl)-1H-pyrazolo[3,4-b]pyridine-5-carbonitrile]"
250,4.5,3,,"CC(C)(O)CCc1cn(-c2cnc(-n3ncc4cc(C#N)cnc43)cc2NC2CCC(F)C2)nn1 (stereo not drawn) [Example 364, 1-(4-((3-fluorocyclopentyl)amino)-5-(4-(3-hydroxy-3-methylbutyl)-1H-1,2,3-triazol-1-yl)pyridin-2-yl)-1H-pyrazolo[3,4-b]pyridine-5-carbonitrile]"
410,< 1.5,3,,"CC(C)(O)CCc1cn(-c2cnc(-n3ncc4cc(C#N)cnc43)cc2NC2CCOC2)nn1 [Example 365, (S)-1-(5-(4-(3-hydroxy-3-methylbutyl)-1H-1,2,3-triazol-1-yl)-4-((tetrahydrofuran-3-yl)amino)pyridin-2-yl)-1H-pyrazolo[3,4-b]pyridine-5-carbonitrile]"
230,3.6,9,,"CC(C)(O)CCc1cn(-c2cnc(-n3ncc4cc(C#N)cnc43)cc2NC2CC(F)(F)C2)nn1 [Example 367, 1-(4-((3,3-difluorocyclobutyl)amino)-5-(4-(3-hydroxy-3-methylbutyl)-1H-1,2,3-triazol-1-yl)pyridin-2-yl)-1H-pyrazolo[3,4-b]pyridine-5-carbonitrile]"
180,3.2,3,,"CC(C)(O)CCc1cn(-c2cnc(-n3ncc4cc(C#N)cnc43)cc2N[C@H]2CC[C@H](F)C2)nn1 [Example 368, 1-(4-(((1S,3S)-3-fluorocyclopentyl)amino)-5-(4-(3-hydroxy-3-methylbutyl)-1H-1,2,3-triazol-1-yl)pyridin-2-yl)-1H-pyrazolo[3,4-b]pyridine-5-carbonitrile]"
270,6.7,7,,"CCNc1cc(-n2ncc3cc(C#N)cnc32)ncc1-n1cc(CCC(C)(C)O)nn1 [Example 369, 1-(4-(ethylamino)-5-(4-(3-hydroxy-3-methylbutyl)-1H-1,2,3-triazol-1-yl)pyridin-2-yl)-1H-pyrazolo[3,4-b]pyridine-5-carbonitrile]"
280,2.5,9,,"CC(C)(O)CCc1cn(-c2cnc(-n3ncc4cc(C#N)cnc43)cc2NCCCF)nn1 [Example 370, 1-(4-((3-fluoropropyl)amino)-5-(4-(3-hydroxy-3-methylbutyl)-1H-1,2,3-triazol-1-yl)pyridin-2-yl)-1H-pyrazolo[3,4-b]pyridine-5-carbonitrile]"
130,< 1.5,1,,"CC(C)Nc1cc(-n2ncc3cc(C#N)c(N)nc32)ncc1-n1cc(CCC(C)(C)O)nn1 [Example 371, 6-amino-1-(5-(4-(3-hydroxy-3-methylbutyl)-1H-1,2,3-triazol-1-yl)-4-(isopropylamino)pyridin-2-yl)-1H-pyrazolo[3,4-b]pyridine-5-carbonitrile]"
330,3.6,4,,"CC(C)(O)CCc1cn(-c2cnc(-n3ncc4cc(C#N)cnc43)cc2N[C@H]2CC[C@@H](F)C2)nn1 [Example 372, 1-(4-(((1S,3R)-3-fluorocyclopentyl)amino)-5-(4-(3-hydroxy-3-methylbutyl)-1H-1,2,3-triazol-1-yl)pyridin-2-yl)-1H-pyrazolo[3,4-b]pyridine-5-carbonitrile]"
300,27.7,4,,"CC(C)(F)CCc1cn(-c2cnc(-n3ncc4cc(C#N)cnc43)cc2N[C@@H]2CCOC2)nn1 [Example 373, (R)-1-(5-(4-(3-fluoro-3-methylbutyl)-1H-1,2,3-triazol-1-yl)-4-((tetrahydrofuran-3-yl)amino)pyridin-2-yl)-1H-pyrazolo[3,4-b]pyridine-5-carbonitrile]"
300,6.8,1,,"CC(C)(O)CCc1cn(-c2cnc(-n3ncc4cc(C#N)cnc43)cc2N[C@@H]2CCC[C@@H]2F)nn1 [Example 375, 1-(4-(((1R,2S)-2-fluorocyclopentyl)amino)-5-(4-(3-hydroxy-3-methylbutyl)-1H-1,2,3-triazol-1-yl)pyridin-2-yl)-1H-pyrazolo[3,4-b]pyridine-5-carbonitrile]"
240,< 1.5,7,,"CC(C)(O)CCc1cn(-c2cnc(-n3ncc4cc(C#N)cnc43)cc2NC(CF)CF)nn1 [Example 377, 1-(4-((1,3-difluoropropan-2-yl)amino)-5-(4-(3-hydroxy-3-methylbutyl)-1H-1,2,3-triazol-1-yl)pyridin-2-yl)-1H-pyrazolo[3,4-b]pyridine-5-carbonitrile]"
160,< 1.5,2,,"CC(C)Nc1cc(-n2ncc3cc(C#N)cnc32)ncc1-n1cc(CCC(C)(C)OC(=O)CN)nn1 [Example 378, 4-(1-(6-(5-cyano-1H-pyrazolo[3,4-b]pyridin-1-yl)-4-(isopropylamino)pyridin-3-yl)-1H-1,2,3-triazol-4-yl)-2-methylbutan-2-yl glycinate]"
140,< 1.5,5,,"CC(C)(O)CCc1cn(-c2cnc(-n3ncc4cc(C#N)cnc43)cc2NC2COCC2F)nn1 (stereo not drawn) [Example 379, 1-(4-((4-fluorotetrahydrofuran-3-yl)amino)-5-(4-(3-hydroxy-3-methylbutyl)-1H-1,2,3-triazol-1-yl)pyridin-2-yl)-1H-pyrazolo [3,4-b]pyridine-5-carbonitrile]"
460,24.8,2,,"CC(C)Nc1cc(-n2ncc3cc(C#N)cnc32)ncc1-n1cc(CCC(C)(C)OC(=O)C2CC2)nn1 [Example 382, 4-(1-(6-(5-cyano-1H-pyrazolo[3,4-b]pyridin-1-yl)-4-(isopropylamino)pyridin-3-yl)-1H-1,2,3-triazol-4-yl)-2-methylbutan-2-yl cyclopropanecarboxylate]"
250,13.1,2,,"CC(C)Nc1cc(-n2ncc3cc(C#N)cnc32)ncc1-n1cc(CCC(C)(C)OC(=O)CN(C)C)nn1 [Example 384, 4-(1-(6-(5-cyano-1H-pyrazolo[3,4-b]pyridin-1-yl)-4-(isopropylamino)pyridin-3-yl)-1H-1,2,3-triazol-4-yl)-2-methylbutan-2-yl dimethylglycinate]"
200,24.8,4,,"CC(C)Nc1cc(-n2ncc3cc(C#N)cnc32)ncc1-n1cc(C2CCN(C(=O)C(F)(F)F)CC2)nn1 [Example 386, 1-(4-(isopropylamino)-5-(4-(1-(2,2,2-trifluoroacetyl)piperidin-4-yl)-1H-1,2,3-triazol-1-yl)pyridin-2-yl)-1H-pyrazolo[3,4-b]pyridine-5-carbonitrile]"
240,< 1.5,8,,"CC(C)Nc1cc(-n2ncc3cc(C#N)cnc32)ncc1-n1cc(CC[C@](C)(O)CO)nn1 [Example 387, (S)-1-(5-(4-(3,4-dihydroxy-3-methylbutyl)-1H-1,2,3-triazol-1-yl)-4-(isopropylamino)pyridin-2-yl)-1H-pyrazolo[3,4-b]pyridine-5-carbonitrile]"

# From patent US10294229B2, “Heteroaryl substituted aminopyridine compounds” (BRISTOL-MYERS SQUIBB COMPANY, priority 2015, dated 2019)
